Experimental data: patent US12453712B2, “Antitumoral use of cabazitaxel” (Sanofi Mature IP, priority 2009, dated 2025)

Columns and labels:
[1] = system: cancers that are resistant to hormone deprivation; details: docetaxel in combination with estramustine or prednisone; cited from earlier work
[2] = system: castration resistant metastatic prostate cancer; assay: Randomized clinical study of cabazitaxel vs mitoxantrone, each with prednisone or prednisolone: efficacy; format: in vivo, human; details: intention-to-treat
Description: (§1) A clinical study was performed wherein patients received either treatment with cabazitaxel or the reference treatment based on mitoxantrone each combined with prednisone or prednisolone.
(§2) More specifically, patients over 18 years of age with metastatic castration resistant metastatic prostate cancer either measurable by RECIST criteria or non-measurable disease with rising PSA levels or appearance of new lesions, ECOG (Eastern Cooperative Oncology Group) performance stage 0-2, and adequate organ function (patients had to have neutrophils >1,500 cells/mm^3, platelets >100,000 cells/mm^3, hemoglobin >10 g/dL, creatinine <1.5×upper limit of normal (ULN), total bilirubin <1×ULN, AST <1.5×ULN, and ALT <1.5×ULN) who had had prior hormone therapy, chemotherapy, and radiotherapy, but had progressive during or after docetaxel treatment (cumulative dose ≥225 mg/m^2) were randomized to 10 mg/day of prednisone with either mitoxantrone 12 mg/m^2 or cabazitaxel 25 mg/m^2, both administered every 3 weeks.
(§3) Patients with a history of congestive heart failure, or myocardial infarction within the last 6 months, or patients with uncontrolled cardiac arrhythmias, angina pectoris, and/or hypertension were not included in the study.
(§4) 720 patients were planned to be included in the clinical study: 360 in each cabazitaxel+prednisone and mitoxantrone+prednisone group. Seven hundred and fifty-five patients (755) (median age 68; 84% white) were actually enrolled, 378 in the cabazitaxel and prednisone/prednisolone group and 377 in the mitoxantrone and prednisone/prednisolone group. The maximal number of treatment cycles was 10 for cabazitaxel and 10 for mitoxantrone. The median number of treatment cycles was 6 for cabazitaxel and 4 for mitoxantrone. The median prior dose of docetaxel treatment was 576 mg/m^2 for the cabazitaxel group and 529 mg/m^2 for the mitoxantrone group. Median follow-up was 12.8 months.
The measurements of the results are performed via the same tests as at inclusion. MRI and spiral computed tomographic (CT) scans are preferably used.
The results are evaluated according to the following criteria (cf RECIST guideline): • overall survival (OS): the time from inclusion to the study to the date of death complete response (CR): disappearance of the lesions • partial response (PR): at least 30% reduction of the largest diameter of the lesion progression (PD): at least 20% increase in the sum of the largest diameter of the lesion or appearance of one or more new lesions • stable disease (SD): reduction of the tumour insufficient to be included in PR and increase of the tumour insufficient to be included in PD.
The confirmations of the measurements are made at least 4 weeks after the response criterion has been established for the first time.
The progression-free survival (PFS) is the time from inclusion in the study and the date of progression or death when the progression is either an increase of the PSA, or of the tumour, or of the pain.

[3] = Same clinical study: adverse reactions, hematologic abnormalities, treatment discontinuation, delays and dose reductions; format: in vivo, human
Description: as §1, §2, §3, §4

[4] = human, in vivo, listed as Mitoxantrone
[5] = percent of patients, laboratory values, cabazitaxel: n = 369, mitoxantrone: n = 370

CC(=O)O[C@@]12CO[C@@H]1C[C@H](O)[C@@]1(C)C(=O)[C@H](O)C3=C(C)[C@@H](OC(=O)[C@H](O)[C@@H](NC(=O)OC(C)(C)C)c4ccccc4)C[C@@](O)([C@@H](OC(=O)c4ccccc4)[C@H]21)C3(C)C [docetaxel]
improvement of survival [1]: 2.4 months

O=C1c2c(O)ccc(O)c2C(=O)c2c(NCCNCCO)ccc(NCCNCCO)c21 [mitoxantrone, reference compound]
Discontinuation of study treatment for disease progression, (%) [2]: (70.8) %
Discontinuation of study treatment for disease progression, no. ([2]; N = 377 mitoxantrone, N = 378 cabazitaxel): 267
Overall survival Median ([2]; 25 mg/m^2 cabazitaxel or 12 mg/m^2 mitoxantrone every 3 weeks with prednisone): 12.7 months
PFS Median ([2]; earliest progression in tumor, PSA or pain): 1.4 months
Rates of febrile neutropenia ([3]; Example 1): 1.3%
Dose reductions, cycles (%) ([3]; human, in vivo): 5.1%
Dose reductions, no. of cycles ([3]; human, in vivo): 88
Treatment delays >9 days, cycles (%) ([3]; human, in vivo): 1.6%
Treatment delays >9 days, no. of cycles ([3]; human, in vivo): 28
Treatment delays ≤9 days, cycles (%) ([3]; human, in vivo): 6.3%
Treatment delays ≤9 days, no. of cycles ([3]; human, in vivo): 110
Dose reductions, cycles (%) [3, 4]: (5.1) %
Treatment delays >9 days, cycles (%) [3, 4]: (1.6) %
Treatment delays ≤9 days, cycles (%) [3, 4]: (6.3) %
Discontinuation of study treatment for adverse event, (%) ([3]; intention-to-treat): (8.5) %
Discontinuation of study treatment for adverse event, no. ([3]; intention-to-treat, N = 377 mitoxantrone, N = 378 cabazitaxel): 32
Abdominal Pain Grade 1-4, (%) ([3]; percent of patients of n = 371): (6%)
Alopecia Grade 1-4, (%) ([3]; percent of patients of n = 371): (5%)
Anorexia Grade 1-4, (%) ([3]; percent of patients of n = 371): (11%)
Anorexia Grade 3-4, (%) ([3]; percent of patients of n = 371): (<1%)
Arrhythmia Grade 1-4, (%) ([3]; percent of patients of n = 371): (2%)
Arrhythmia Grade 3-4, (%) ([3]; percent of patients of n = 371): (<1%)
Arthralgia Grade 1-4, (%) ([3]; percent of patients of n = 371): (8%)
Arthralgia Grade 3-4, (%) ([3]; percent of patients of n = 371): (1%)
Asthenia Grade 1-4, (%) ([3]; percent of patients of n = 371): (12%)
Asthenia Grade 3-4, (%) ([3]; percent of patients of n = 371): (2%)
Back Pain Grade 1-4, (%) ([3]; percent of patients of n = 371): (12%)
Back Pain Grade 3-4, (%) ([3]; percent of patients of n = 371): (3%)
Bone Pain Grade 1-4, (%) ([3]; percent of patients of n = 371): (5%)
Bone Pain Grade 3-4, (%) ([3]; percent of patients of n = 371): (2%)
Constipation Grade 1-4, (%) ([3]; percent of patients of n = 371): (15%)
Constipation Grade 3-4, (%) ([3]; percent of patients of n = 371): (<1%)
Cough Grade 1-4, (%) ([3]; percent of patients of n = 371): (6%)
Dehydration Grade 1-4, (%) ([3]; percent of patients of n = 371): (3%)
Dehydration Grade 3-4, (%) ([3]; percent of patients of n = 371): (<1%)
Diarrhea Grade 1-4, (%) ([3]; percent of patients of n = 371): (11%)
Diarrhea Grade 3-4, (%) ([3]; percent of patients of n = 371): (<1%)
Dizziness Grade 1-4, (%) ([3]; percent of patients of n = 371): (6%)
Dizziness Grade 3-4, (%) ([3]; percent of patients of n = 371): (<1%)
Dysgeusia Grade 1-4, (%) ([3]; percent of patients of n = 371): (4%)
Dyspepsia Grade 1-4, (%) ([3]; percent of patients of n = 371): (2%)
Dyspnea Grade 1-4, (%) ([3]; percent of patients of n = 371): (4%)
Dyspnea Grade 3-4, (%) ([3]; percent of patients of n = 371): (<1%)
Dysuria Grade 1-4, (%) ([3]; percent of patients of n = 371): (1%)
Fatigue Grade 1-4, (%) ([3]; percent of patients of n = 371): (27%)
Fatigue Grade 3-4, (%) ([3]; percent of patients of n = 371): (3%)
Febrile Neutropenia Grade 1-4, (%) ([3]; percent of patients of n = 371): (1%)
Febrile Neutropenia Grade 3-4, (%) ([3]; percent of patients of n = 371): (1%)
Headache Grade 1-4, (%) ([3]; percent of patients of n = 371): (5%)
Hematuria Grade 1-4, (%) ([3]; percent of patients of n = 371): (4%)
Hematuria Grade 3-4, (%) ([3]; percent of patients of n = 371): (<1%)
Hypotension Grade 1-4, (%) ([3]; percent of patients of n = 371): (2%)
Hypotension Grade 3-4, (%) ([3]; percent of patients of n = 371): (<1%)
Mucosal Inflammation Grade 1-4, (%) ([3]; percent of patients of n = 371): (3%)
Mucosal Inflammation Grade 3-4, (%) ([3]; percent of patients of n = 371): (<1%)
Muscle Spasms Grade 1-4, (%) ([3]; percent of patients of n = 371): (3%)
Musculoskeletal Pain Grade 1-4, (%) ([3]; percent of patients of n = 371): (5%)
Musculoskeletal Pain Grade 3-4, (%) ([3]; percent of patients of n = 371): (<1%)
Nausea Grade 1-4, (%) ([3]; percent of patients of n = 371): (23%)
Nausea Grade 3-4, (%) ([3]; percent of patients of n = 371): (<1%)
Pain Grade 1-4, (%) ([3]; percent of patients of n = 371): (5%)
Pain Grade 3-4, (%) ([3]; percent of patients of n = 371): (2%)
Pain in Extremity Grade 1-4, (%) ([3]; percent of patients of n = 371): (7%)
Pain in Extremity Grade 3-4, (%) ([3]; percent of patients of n = 371): (1%)
Peripheral Edema Grade 1-4, (%) ([3]; percent of patients of n = 371): (9%)
Peripheral Edema Grade 3-4, (%) ([3]; percent of patients of n = 371): (<1%)
Peripheral Neuropathy Grade 1-4, (%) ([3]; percent of patients of n = 371): (3.2%)
Peripheral Neuropathy Grade 3-4, (%) ([3]; percent of patients of n = 371): (<1%)
Pneumonia Grade 1-4, (%) ([3]; percent of patients of n = 371): (1%)
Pneumonia Grade 3-4, (%) ([3]; percent of patients of n = 371): (<1%)
Pyrexia Grade 1-4, (%) ([3]; percent of patients of n = 371): (6%)
Pyrexia Grade 3-4, (%) ([3]; percent of patients of n = 371): (<1%)
Urinary Tract Infection Grade 1-4, (%) ([3]; percent of patients of n = 371): (3%)
Urinary Tract Infection Grade 3-4, (%) ([3]; percent of patients of n = 371): (1%)
Vomiting Grade 1-4, (%) ([3]; percent of patients of n = 371): (10%)
Weight Decreased Grade 1-4, (%) ([3]; percent of patients of n = 371): (8%)
Weight Decreased Grade 3-4, (%) ([3]; percent of patients of n = 371): (<1%)
Anemia Grade 1-4, (%) [3, 5]: (82%)
Anemia Grade 3-4, (%) [3, 5]: (5%)
Leukopenia Grade 1-4, (%) [3, 5]: (93%)
Leukopenia Grade 3-4, (%) [3, 5]: (42%)
Neutropenia Grade 1-4, (%) [3, 5]: (87%)
Neutropenia Grade 3-4, (%) [3, 5]: 58.0%
Thrombocytopenia Grade 1-4, (%) [3, 5]: (43%)
Thrombocytopenia Grade 3-4, (%) [3, 5]: (2%)
Neutropenia Grade 3-4, (%) ([3]; percent of patients, laboratory values, cabazitaxel: n = 369, mitoxantrone: n = 370, listed as Mitoxantrone): (58%)
